This is an account of results in paper PMC8162404, “Proteomimetic surface fragments distinguish targets by function” (Chemical Science, 2020).

Molecules are shown by their SMILES.

The target of assay [1] is T1, CaM (Bos taurus, UniProt P62157).
T1 construct: made in house; host or cells: E. coli BL21 (DE3)
In words: Pull-down assay with immobilized protein and LSM libraries. Format: binding, bovine. The note with it: H14 library; 1:2 stoichiometry assumed; read-out: Surface mapping KD (apparent). In outline: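 CaM buffer was 20 mM HEPES pH 7.4, 150 mM NaCl, 5 mM CaCl2. LSM sublibrary members ([…]) incubated 30 min, RT, with equimolar His-tagged protein on Co-NTA resin. HPLC-MS measured unbound probes; bound fraction relative to resin-only background gave dissociation constants.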

In assay [2] the target is T2, Gal-1 (Homo sapiens, UniProt P09382).
T2 construct: made in house; host or cells: E. coli BL21(DE3)
Described as above. The note with it: H14 library; 1:1 binding assumed; read-out: Surface mapping KD (apparent). It counts as binding. In outline:
(§1)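 Buffers were HEPES pH 7.4 with 150 mM NaCl, plus 1 mM TCEP and 1 mM CaCl2 (50 mM HEPES) for S100A4 and S100B, 1 mM TCEP for Gal-1, and no additive for RecQ-WH. Immobilized protein at 64 µM was equilibrated 30 min with the LSM sublibrary, and unbound probes were measured by LC-MS.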

Assay [3] has as its target T1, CaM. Put plainly: Competition pull-down with native ligand TRPV1-Ct15. It counts as binding, bovine. The conditions noted are these: H14 library; competitor peptide 200 µM; read-out: Surface mapping KD (apparent), competition.
Assay [4] addresses T2, Gal-1. Put plainly: Competition pull-down with lactose. It counts as binding. The conditions noted are these: H14 library; lactose 10 mM; read-out: Surface mapping KD (apparent), competition. As to the method:
Interactions between the H14 helical LSMs and the targets were abundant, but safe recognition of the native PPI interfaces on the targets is a criterion of druggability. To gain insight into the ability of the LSMs to detect orthosteric spots, we carried out pull-down assays in the presence of the native ligands (Table 2) of the targets (Fig. 5). For highlighting the effect of the competitor on the binding fingerprints, KD ratios and the LSM replacement percentages were calculated and are represented as heat maps (see ESI, Fig. S7 ^†). […] This could be explained by the glycan selective native recognition domain of the protein. We note that the replacement pattern for a single probe can, in theory, be complex. […] Moreover, a single probe can bind to both orthosteric and non-orthosteric spots, which limits overall displacement levels. To avoid overlooking interesting orthosteric weak binders, direct replacement levels were assessed (see ESI, Fig. S7 ^†).
Pull-down assay and data analysis
Pull-down assay. LSM sublibraries were screened separately as previously described.(2) Experiments were performed in the following buffers: (i) 20 mM pH 7.4 HEPES, 150 mM NaCl, 5 mM CaCl2 for CaM; (ii) 50 mM pH 7.4 HEPES, 150 mM NaCl, 1 mM TCEP, 1 mM CaCl2 for S100 proteins; (iii) 20 mM pH 7.4 HEPES, 150 mM NaCl, 1 mM TCEP for Gal-1 and (iv) 20 mM pH 7.4 HEPES, 150 mM NaCl for RecQ-WH. Assays were performed in paper filter spin cups (Thermo Scientific) with sample volumes of 100 µl. Hexahistidine-tagged proteins were immobilized on previously washed Co-NTA resin (TALON, Takara Bio USA, Inc., Mountain View, CA) in 64 µM final concentration. LSM sublibrary was added, in which each of the 64 library members were used at a concentration of 1 µM. Samples were incubated at room temperature for 30 min with shaking at 100 rpm. Then, samples were centrifuged at 1000 rpm for 2 min and washed with 100 µl pull-down buffer to remove unbound compounds.
The control experiments were performed using the same compounds and the resin but without the immobilized protein. In case of competitive assays, competitor peptides were added to LSM sublibrary samples in 200 µM final concentration. In the case of Gal-1, lactose (competitor) was used in a concentration of 10 mM. Experiments were performed at least twice. Mean […]
LC-MS methods and parameters. HPLC/ESI-MS analysis was used to characterize the samples from the pull-down assay. LC-MS analysis was performed with a Thermo Scientific Dionex UltiMate 3000 HPLC system interfaced to an LTQ ion trap mass spectrometer (Thermo Electron Corp., San Jose, CA, USA). Samples were injected onto an Aeris Widepore XB-C18 (250 x 4.6 mm) analytical HPLC column using gradient elution 5-80 % solution B during 25 minutes. For pull-down samples, eluent composition was 0.1% acetic acid in distilled water (Solution A) and 0.1% acetic acid in acetonitrile (solution B). Mass spectra were acquired in full scan mode from 200 to 2000 m/z range. For overlapping peaks, selective reaction monitoring (SRM) was […]
MS data analysis. Thermo Xcalibur 2.2 software was used for peak identification and integration. The majority of the foldameric fragments could be resolved independently via HPLC-MS/MS measurements based on molecular weight, MS fragmentation pattern and retention time. Peaks of some foldamers with β3-hIle or β3-hLeu in position R2 could not be resolved, these were integrated and averaged. In the processing method, each sample component was associated to a chromatographic peak based on previously identified mass (m/z) and retention time (ref (2) and Table S7-10). Using ICIS peak detection algorithm, the general detection and integration criteria were: smoothing points: 5, baseline window: 80, area noise factor: 5, peak noise factor: 10. Using these processing setups, all raw data files were reprocessed together and analyzed. Errors in peak identification during the automatic processing were corrected manually.
Calculation of the discussed parameters […]

In another assay the target is T3, S100A4 (Homo sapiens, UniProt P26447).
T3 construct: made in house; host or cells: Escherichia coli BL21(DE3)
Put plainly: Pull-down assay with immobilized protein and LSM libraries. Format: binding. The conditions noted are these: for Kd: H14 library, 1:1 binding assumed, read-out: Surface mapping KD (apparent). In outline: as §1

The target in another assay is T4, S100B (Homo sapiens, UniProt P04271).
T4 construct: made in house; host or cells: Escherichia coli BL21(DE3)
T4 sequence (P04271 1-92): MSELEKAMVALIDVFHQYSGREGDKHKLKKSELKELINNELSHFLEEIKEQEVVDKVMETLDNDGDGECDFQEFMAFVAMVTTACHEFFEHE
The description is as above. The note with it: for Kd: H14 library, 1:1 binding assumed, read-out: Surface mapping KD (apparent). Format: binding. The method in brief: as §1

Setting [5] is: H14 probes selected for validation.

T2 sequence (P09382 whole entry): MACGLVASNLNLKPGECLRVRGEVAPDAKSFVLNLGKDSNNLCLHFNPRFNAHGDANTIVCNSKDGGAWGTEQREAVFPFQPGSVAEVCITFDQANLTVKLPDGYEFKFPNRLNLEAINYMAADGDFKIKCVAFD
T3 sequence (P26447 whole entry): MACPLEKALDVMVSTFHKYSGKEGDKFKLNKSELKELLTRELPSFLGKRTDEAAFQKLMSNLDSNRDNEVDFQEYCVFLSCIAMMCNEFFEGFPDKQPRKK

Consider `NC(=O)C[C@@H](CC(=O)N[C@H]1CCCC[C@@H]1C(N)=O)NC(=O)[C@H]1CCCC[C@@H]1NC(=O)[C@H]1CCCC[C@@H]1NC(=O)C[C@H](CO)NC(=O)[C@H]1CCCC[C@@H]1N` [H14 SN], for which the Kd at CaM [1] amounted to 184 µM; at Gal-1 [2] it was 310 µM; at CaM [3] it was 279 µM; on Gal-1 [4] it was 427 µM.

As to `CC(C)[C@@H](CC(=O)N[C@H]1CCCC[C@@H]1C(N)=O)NC(=O)[C@H]1CCCC[C@@H]1NC(=O)[C@H]1CCCC[C@@H]1NC(=O)C[C@H](CCC(=O)O)NC(=O)[C@H]1CCCC[C@@H]1N` [H14 EV], the values for the Kd on CaM [3] and on Gal-1 [4] were 492 µM and 300 µM, respectively.

For `NC(=O)CC[C@@H](CC(=O)N[C@H]1CCCC[C@@H]1C(=O)N[C@H]1CCCC[C@@H]1C(=O)N[C@@H](CO)CC(=O)N[C@H]1CCCC[C@@H]1C(N)=O)NC(=O)[C@H]1CCCC[C@@H]1N` [H14 QS], the Kd at CaM [1] stood at 187 µM; on Gal-1 [2], 350 µM; at CaM [3], 336 µM; on Gal-1 [4], 500 µM.

As for `C[C@@H](CC(=O)N[C@H]1CCCC[C@@H]1C(N)=O)NC(=O)[C@H]1CCCC[C@@H]1NC(=O)[C@H]1CCCC[C@@H]1NC(=O)C[C@H](CCC(N)=O)NC(=O)[C@H]1CCCC[C@@H]1N` [H14 QA], the Kd at CaM [1] came out at 174 µM; at Gal-1 [2], 349 µM; on CaM [3] it was 211 µM; at Gal-1 [4] it was 444 µM.

In the case of `NC(=O)[C@H]1CCCC[C@@H]1NC(=O)C[C@H](CCC(=O)O)NC(=O)[C@H]1CCCC[C@@H]1NC(=O)[C@H]1CCCC[C@@H]1NC(=O)C[C@H](CO)NC(=O)[C@H]1CCCC[C@@H]1N` [H14 SE], the Kd at CaM [1] was 236 µM; at Gal-1 [2], 326 µM; on CaM [3], 232 µM; on Gal-1 [4], 415 µM.

As for `NC(=O)C[C@@H](CC(=O)N[C@H]1CCCC[C@@H]1C(N)=O)NC(=O)[C@H]1CCCC[C@@H]1NC(=O)[C@H]1CCCC[C@@H]1NC(=O)C[C@H](Cc1c[nH]c2ccccc12)NC(=O)[C@H]1CCCC[C@@H]1N` [H14 WN], the Kd on CaM [1] turned out to be 14 µM; at S100A4, 224 µM; on S100B, 168 µM; at CaM [3] it was 294 µM.

Take `NCCCC[C@@H](CC(=O)N[C@H]1CCCC[C@@H]1C(=O)N[C@H]1CCCC[C@@H]1C(=O)N[C@H](CC(=O)N[C@H]1CCCC[C@@H]1C(N)=O)Cc1ccccc1)NC(=O)[C@H]1CCCC[C@@H]1N` [H14 KF]: the Kd at CaM [1] is 8 µM; at S100A4, 102 µM; on S100B, 26 µM; on CaM [3], 339 µM.

Regarding `NCCCC[C@@H](CC(=O)N[C@H]1CCCC[C@@H]1C(=O)N[C@H]1CCCC[C@@H]1C(=O)N[C@H](CC(=O)N[C@H]1CCCC[C@@H]1C(N)=O)Cc1c[nH]c2ccccc12)NC(=O)[C@H]1CCCC[C@@H]1N` [H14 KW], the Kd was found to be 3 µM at CaM [1], 184 µM at S100A4, 28 µM on S100B and 398 µM at CaM [3].

Turning to `NC(=O)[C@H]1CCCC[C@@H]1NC(=O)C[C@H](CO)NC(=O)[C@H]1CCCC[C@@H]1NC(=O)[C@H]1CCCC[C@@H]1NC(=O)C[C@H](CO)NC(=O)[C@H]1CCCC[C@@H]1N` [H14 SS], the Kd at CaM [1] amounted to 172 µM; on Gal-1 [2], 435 µM; at CaM [3] it was 236 µM.

In the case of `CSCC[C@@H](CC(=O)N[C@H]1CCCC[C@@H]1C(N)=O)NC(=O)[C@H]1CCCC[C@@H]1NC(=O)[C@H]1CCCC[C@@H]1NC(=O)C[C@@H](NC(=O)[C@H]1CCCC[C@@H]1N)[C@@H](C)O` [H14 TM], the values for the Kd on CaM [1], on S100A4 and at CaM [3] were 46 µM, 13 µM and 113 µM, respectively. The “Binding” value on S100A4 (H14 probes) is “binds”; on S100B (H14 probes), “does not”. Further, the “Affinity class of probe (high, medium, low) in pull-down” value is “high” at S100A4 (setting [5]) and “low” on S100B (setting [5]).

Regarding `C[C@@H](O)[C@@H](CC(=O)N[C@H]1CCCC[C@@H]1C(N)=O)NC(=O)[C@H]1CCCC[C@@H]1NC(=O)[C@H]1CCCC[C@@H]1NC(=O)C[C@H](CCC(N)=O)NC(=O)[C@H]1CCCC[C@@H]1N` [H14 QT], the Kd at CaM [1] was 211 µM; at Gal-1 [2], 325 µM; on CaM [3] it was 266 µM.

On to `C[C@@H](O)[C@@H](CC(=O)N[C@H]1CCCC[C@@H]1C(=O)N[C@H]1CCCC[C@@H]1C(=O)N[C@@H](CCCCN)CC(=O)N[C@H]1CCCC[C@@H]1C(N)=O)NC(=O)[C@H]1CCCC[C@@H]1N` [H14 TK], for which the results for the Kd at CaM [1], at S100B and on CaM [3] were 88 µM, 172 µM and 485 µM, respectively.

`C[C@@H](O)[C@@H](CC(=O)N[C@H]1CCCC[C@@H]1C(=O)N[C@H]1CCCC[C@@H]1C(=O)N[C@@H](CCC(N)=O)CC(=O)N[C@H]1CCCC[C@@H]1C(N)=O)NC(=O)[C@H]1CCCC[C@@H]1N` [H14 TQ]: the Kd at CaM [1] stood at 156 µM; on Gal-1 [2] it was 369 µM; on CaM [3] it was 269 µM.

As for `NC(=O)CC[C@@H](CC(=O)N[C@H]1CCCC[C@@H]1C(=O)N[C@H]1CCCC[C@@H]1C(=O)N[C@@H](CC(=O)O)CC(=O)N[C@H]1CCCC[C@@H]1C(N)=O)NC(=O)[C@H]1CCCC[C@@H]1N` [H14 QD], the Kd turned out to be 231 µM at CaM [1], 379 µM on Gal-1 [2] and 349 µM at CaM [3].

Consider `NC(=O)CC[C@@H](CC(=O)N[C@H]1CCCC[C@@H]1C(=O)N[C@H]1CCCC[C@@H]1C(=O)N[C@@H](CC(N)=O)CC(=O)N[C@H]1CCCC[C@@H]1C(N)=O)NC(=O)[C@H]1CCCC[C@@H]1N` [H14 QN], for which the Kd on CaM [1] was determined as 177 µM; at Gal-1 [2] it was 257 µM; at CaM [3], 304 µM.

Consider `NCCCC[C@@H](CC(=O)N[C@H]1CCCC[C@@H]1C(=O)N[C@H]1CCCC[C@@H]1C(=O)N[C@@H](CC(=O)O)CC(=O)N[C@H]1CCCC[C@@H]1C(N)=O)NC(=O)[C@H]1CCCC[C@@H]1N` [H14 KD], for which the results for the Kd on CaM [3] and at Gal-1 [4] were 365 µM and 290 µM, respectively.

`CSCC[C@@H](CC(=O)N[C@H]1CCCC[C@@H]1C(=O)N[C@H]1CCCC[C@@H]1C(=O)N[C@@H](CC(=O)O)CC(=O)N[C@H]1CCCC[C@@H]1C(N)=O)NC(=O)[C@H]1CCCC[C@@H]1N` [H14 MD]: the Kd on S100A4 was 423 µM; at CaM [3], 278 µM.
